In patent US6815426B2, “Angiogenesis-inhibitory tripeptides, compositions and their methods of use” (E. I. du Pont de Nemours and Company, priority 2001, dated 2004):
“Also recorded” adds a separate entry of the source. Where a SMILES comes first, the peptide text is derived from it. Where no end group is shown, it is not given here. [ ]: non-standard residue; d: D form. ξ: configuration not given here. ξHyp = O=C(O)C1CC(O)CN1

Tests used:
[1] = tested on: Human umbilical vein endothelial cells (HUVEC); assay: FGF2-stimulated endothelial cell tube formation on Matrigel matrix; assay type: cell-based; conditions: for Inhibition of FGF2-stimulated EC tube formation, in words: in vitro, qualitative ranking; for Cell Tube Formation (area) / Cell Tube Formation (length): HUVEC on Matrigel, FGF2 100 ng/mL, peptide 0.015 μmol added with FGF2, overnight; for Cell Tube Formation (length): length/area; for % inhibition cell tube formation (area) / % inhibition cell tube formation (length): peptide 0.015 μmol, FGF2-stimulated HUVEC
Protocol: Differentiation by endothelial cells was examined using a method developed by Grant et al. (In Vitro Cell Dev. Biol. 27A:327-336 (1991)). Matrigel® matrix, phenol-red free (commercially available from Becton Dickinson, Bedford, Mass.) was thawed overnight at 4° C. Using cold pipette tips, 3.0 mg/well of Matrigel® matrix was placed in a cold twenty-four-multiwell plate (Falcon). Matrigel® matrix was allowed to polymerize during incubation at 37° C. for 30 min. Human umbilical vein endothelial cells (HUVEC) were maintained at 37° C. with 5% CO2 and 95% humidity in endothelial cell growth medium with 2% fetal bovine serum (EGM). Tube assay was performed in endothelial cell basal medium (EBM) supplemented with 0.5% bovine serum albumin (BSA) and 1:100 diluted Insulin-Transferrin-Selenium-G supplement (I-T-Se, 100×). HUVEC were trypsinized and centrifuged and subsequently, washed twice in phosphate buffered saline (PBS). After counting, cell density was adjusted to 35,000 cells/mL. At final concentration of 35,000 cells/mL/well were treated with recombinant human fibroblast growth factor basic (FGF2) at 100 ng/mL and peptides (see below) dissolved in EBM medium at to a concentration of 0.015 μmol. Treated cells were incubated overnight at 37° C. with 5% CO2 and 95% humidity to allow cell attachment. Subsequently, the medium was aspirated and cells were fixed and stained using a modified HEMA-3 stain kit. Digital images of microtiter well sections were collected using a DKC5000 3-CCD color video camera system (Toshiba America, New York, N.Y.) and analyzed with the Image-Pro Plus software (Media Cybernetics, Silver Spring, Md.). The area and major axis length of stained cells having a tubular morphology on the Matrigel® matrix surface (Becton Dickinson, Bedford, Pa.) counted from 5 images/well.

[2] = tested on: FGF2-induced angiogenesis in the chorioallantoic membrane (CAM); assay: FGF2-induced neovascularization on the chick chorioallantoic membrane (CAM), branch point count; assay type: in vivo; conditions: for % Inhibition of branch point formation: 16 μg, FGF2-stimulated CAM; for Average # of Branch Points: FGF2 filter disk on CAM, peptide 16 μg topically, 48 h
Protocol: In vivo neovascularization was examined by the method previously described by Auerbach et al. (J. Dev. Biol. 41:391-394 (1974)). Ten-day old embryos were purchased from Spafas, Inc. (Preston, Conn.) and were incubated at 37° C. with 55% relative humidity. In the dark with the help of a candling lamp a small hole was punctured in the shell concealing the air sac with a hypodermic needle. A second hole was punctured in the shell on the broadside of the egg directly over an […] portion of the embryonic membrane, as observed during candling. A false air sac was created beneath the second hole by the application of negative pressure to the first hole, which caused the chorioallantoic membrane (CAM) to separate from the shell. A window, approximately 1.0 cm^2, was cut in the shell over the dropped CAM with the use of a small crafts grinding wheel (Dremel, Division of Emerson Electric Company Racine, WI) which allowed direct access to the underlying CAM. Filter disks of #1 filter paper (Whatman International, United Kingdom) were soaked in 3 mg/mL cortisone acetate (Sigma, St. Louis, Mo.) in a solution of 95% ethanol and water and subsequently air dried under sterile conditions. FGF2 (Life Technologies, Gaithersburg, Md.) was used to grow vessels on the CAMs of 10-d old chick embryos. Sterile filter disks adsorbed with FGF2 dissolved in PBS at 1 μg/mL were placed on growing CAMs. At 24 h, test compounds or control vehicle was added directly to CAMs topically.
CAM tissue directly beneath FGF2-saturated filter disk was resected from embryos treated 48 h prior with compound or control. Tissues were washed three times with PBS. Sections were placed in a 35-mm petri dish (Nalge Nunc, Rochester, N.Y.) and examined under a SV6 stereomicroscope (Karl Zeiss, Thornwood, N.Y.) at 50× magnification. Digital images of CAM sections adjacent to filters were collected using a 3-CCD color video camera system (Toshiba America, New York, N.Y.) and analyzed with the Image-Pro Plus software (Media Cybernetics, Silver Spring, Md.) and can be seen in FIG. 2. Table 3 contains the number of vessel branch points contained in a circular region equal to the area of a filter disk counted for each section. Percent inhibition data is expressed as the quotient of the experimental value minus the negative control value divided by the difference between the positive control value and the negative control value.

[3] = tested on: TSU-Pr (human prostrate) tumor; conditions: 45 μg, after 7 d
Protocol: Ten million tumor cells were placed on the surface of each CAM (7-d old embryo) and were cultured for one week. The resulting tumors were excised and cut into 50 mg fragments. […] Each treatment group incorporated at least ten tumors per experiment. Representative tumors were photographed at 10× magnification. Tumors were then excised from the egg and tumor weights were determined for each tumor. Data is presented as mean tumor weight per treatment group (±standard error of the mean). Statistical analysis was performed using Student's t-test.

human melanoma cells [4] = conditions: cited from earlier work
human melanoma cells [5] = conditions: cited from earlier work; remark: listed apart in the source

Molecule | Inhibition of FGF2-stimulated EC tube formation, in words [1] | % Inhibition of Branch Points in FGF2-Induced CAM Assay ([2]; 1 μg/CAM) | % Inhibition of Branch Points in FGF2-Induced CAM Assay ([2]; 5 μg/CAM) | % Inhibition of Branch Points in FGF2-Induced CAM Assay ([2]; 15 μg/CAM) | % inhibition cell tube formation (area) [1] | % inhibition cell tube formation (length) [1] | other results
CC(=O)N[C@@H](CO)C(=O)N[C@@H](CC(N)=O)C(=O)N1CC(O)CC1C(N)=O (stereo partly drawn) [SN-t4Hyp] (Ac-Ser-Asn-[ξHyp]-NH2) | most potent | 39% +/− 11 | 60% +/− 7 | 71% +/− 8 |  |  | 
CC(=O)N[C@@H](CO)C(=O)N[C@@H](CC(N)=O)C(=O)N[C@H](CO)C(N)=O [SNs] (Ac-Ser-Asn-[dS]-NH2) | most potent | 62% +/− 7 | 78% +/− 6 | 69% +/− 8 |  |  | 
CC(=O)NC(CO)C(=O)NC(CC(N)=O)C(=O)NC(CO)C(N)=O (stereo not drawn) [acetyl-SNS-carboxamide, acetyl-Ser-Asn-Ser-carboxamide] (Ac-Ser-Asn-Ser-NH2; configuration not given here) | very potent inhibitor; also recorded: more potent inhibitor |  |  |  | 97% +/− 8 | 84% +/− 9 | Cell Tube Formation (area) [1]: 1.1011 +/− 0.12 10^4 square microns; Cell Tube Formation (length) [1]: 47.5267 +/− 4.31 mm/mm^2; % Inhibition of branch point formation [2]: 100.23%; % Inhibition of branch point formation ([2]; listed as acetyl-Ser-Asn-Ser-carboxamide): 100%; Average # of Branch Points [2]: 91.60; % ave inhibition of TSU-Pr tumor growth (weight) ([3]; injected into tumors): 111%; Tumors showing significant weight shrinkage ([3]; ten tumors injected): Six tumors out of the ten
CNYYSNSYSFWLASLNPER [SEQ ID NO:1, peptide of residues 185-203 of the NC1 domain of the α3-chain of collagen type IV] |  |  |  |  |  |  | Promotion of adhesion of human melanoma cells over controls (human melanoma cells [4]): 50-60%; Inhibition of proliferation of human melanoma cells (human melanoma cells [5]): 40%
FGF2: recombinant human fibroblast growth factor basic, angiogenic stimulus [reference compound] |  |  |  |  |  |  | Cell Tube Formation (area) [1]: 2.2501 +/− 0.28 10^4 square microns; Cell Tube Formation (length) [1]: 79.8272 +/− 8.66 mm/mm^2; Average # of Branch Points [2]: 263.88
Ser-Gln-Ser [SQS] | most potent | 101% +/− 7 | 121% +/− 6 | 82% +/− 7 |  |  | 
acetyl-Cys-Asn-Tyr-Tyr-Ser-Asn-Ser-Tyr-Ser-Phe-Trp-Leu (Ac-CNYYSNSYSFWL) [SEQ ID NO: 4, As defined in b173] |  |  |  |  | 71% +/− 6 | 54% +/− 3 | 
acetyl-Ser-Asn-Ser-Tyr-Ser-Phe-Trp-Leu (Ac-SNSYSFWL) [SEQ ID NO: 3, As defined in b173] |  |  |  |  | 75% +/− 7 | 65% +/− 3 | 
